Test results published in US8653004B2, “Actives-comprising polymer networks, processes for producing them, and their use” (priority 2007, dated 2014).
≈ marks a conversion by molar mass, not a printed value.

Assay: physchem
Type: physicochemical
Settings: water

With `CCNc1nc(NC(C)(C)C)nc(SC)n1` [terbutryn, N2-tert-butyl-N4-ethyl-6-methylthio-1,3,5-triazine-2,4-diamine] the solubility was ~20 µg/mL (≈ 82.9 µM).
